# Source: article PMC12638379, “An innovative approach to development of new pyrazolylquinolin-2-one hybrids as dual EGFR and BRAF^V600E inhibitors” (Molecular Diversity, 2025)
# Read-outs that look alike come from different tables or passages of the source.
# System: NCI 60 cancer cell lines
# Assay: NCI anticancer screening over a panel of 60 cancer cells, single concentration 10 µM
# Assay type: cell-based, human
# Conditions: Homo sapiens, read-out: % Growth Inhibition (GI %)
# Outline: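 Run under the NCI Compound Evaluation Branch protocol, each compound was tested once at 10 µM. The panel comprised 60 cancer cell lines of diverse tissue origin, including leukemia, lung, colon, CNS, renal, ovarian, breast and prostate.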
# [1] = A549, Non-small cell lung cancer A549/ATCC, 10 μM
# [2] = BT-549, Breast cancer BT-549, 10 μM
# [3] = CAKI-1, Renal cancer CAKI-1, 10 μM
# [4] = CCRF-CEM, Leukemia CCRF-CEM, 10 μM
# [5] = COLO 205, Colon cancer COLO 205, 10 μM
# [6] = DU-145, Prostate cancer DU-145, 10 μM
# [7] = HCC 2998, Colon cancer HCC-2998, 10 μM
# [8] = HCT-15, Colon cancer HCT-15, 10 μM
# [9] = HCT-116, Colon cancer HCT-116, 10 μM
# [10] = HOP-62, Non-small cell lung cancer HOP-62, 10 μM
# [11] = HOP-92, Non-small cell lung cancer HOP-92, 10 μM
# [12] = HT-29, Colon cancer HT29, 10 μM
# [13] = Hs-578T, Breast cancer HS 578T, 10 μM
# [14] = IGROV-1, Ovarian cancer IGROV1, 10 μM
# [15] = LOX IMVI, Melanoma LOX IMVI, 10 μM
# [16] = MCF7, Breast cancer MCF7, 10 μM
# [17] = MDA-MB-231, Breast cancer MDA-MB-231/ATCC, 10 μM
# [18] = MDA-MB-435, Melanoma MDA-MB-435, 10 μM
# [19] = MDA-MB-468, Breast cancer MDA-MB-468, 10 μM
# [20] = NCI-H23, Non-small cell lung cancer NCI-H23, 10 μM
# [21] = NCI-H226, Non-small cell lung cancer NCI-H226, 10 μM
# [22] = NCI-H322M, Non-small cell lung cancer NCI-H322M, 10 μM
# [23] = NCI-H460, Non-small cell lung cancer NCI-H460, 10 μM
# [24] = NCI-H522, Non-small cell lung cancer NCI-H522, 10 μM
# [25] = NCI/ADR-RES, Ovarian cancer NCI/ADR-RES, 10 μM
# [26] = OVCAR-4, Ovarian cancer OVCAR-4, 10 μM
# [27] = OVCAR-5, Ovarian cancer OVCAR-5, 10 μM
# [28] = RPMI-8226, Leukemia RPMI-8226, 10 μM
# [29] = RXF 393, Renal cancer RXF 393, 10 μM
# [30] = SF-268, CNS Cancer SF-268, 10 μM
# [31] = SF-295, CNS Cancer SF-295, 10 μM
# [32] = SF-539, CNS Cancer SF-539, 10 μM
# [33] = SK-MEL-2, Melanoma SK-MEL-2, 10 μM
# [34] = SK-MEL-5, Melanoma SK-MEL-5, 10 μM
# [35] = SK-MEL-28, Melanoma SK-MEL-28, 10 μM
# [36] = SK-OV-3, Ovarian cancer SK-OV-3, 10 μM
# [37] = SN12C, Renal cancer SN12C, 10 μM
# [38] = SNB-19, CNS Cancer SNB-19, 10 μM
# [39] = SNB-75, CNS Cancer SNB-75, 10 μM
# [40] = SW-620, Colon cancer SW-620, 10 μM
# [41] = T47D, Breast cancer T-47D, 10 μM
# [42] = TK-10, Renal cancer TK-10, 10 μM
# [43] = UACC-62, Melanoma UACC-62, 10 μM
# [44] = UACC-257, Melanoma UACC-257, 10 μM
# [45] = UO-31, Renal cancer UO-31, 10 μM
smiles,measurement,setting,value
"C/C(=N\Nc1ccc(S(N)(=O)=O)cc1)c1cnn(-c2cc(=O)[nH]c3ccccc23)c1C [Compound 4a, (E)-4-(2-(1-(5-methyl-1-(2-oxo-1,2-dihydroquinolin-4-yl)-1H-pyrazol-4-yl)ethylidene) hydrazineyl)benzenesulfonamide]",inhibition at 10 µM,"786-0, Renal cancer 786-0, 10 μM",11.6%
same,inhibition at 10 µM,[1],< 5%
same,inhibition at 10 µM,"ACHN, Renal cancer ACHN, 10 μM",< 5%
same,inhibition at 10 µM,[2],34.3%
same,inhibition at 10 µM,[3],5.51%
same,inhibition at 10 µM,[4],7.82%
same,inhibition at 10 µM,[5],< 5%
same,inhibition at 10 µM,[6],< 5%
same,inhibition at 10 µM,[7],< 5%
same,inhibition at 10 µM,[8],< 5%
same,inhibition at 10 µM,[9],< 5%
same,inhibition at 10 µM,"HL-60, Leukemia HL-60(TB), 10 μM",< 5%
same,inhibition at 10 µM,[10],7.49%
same,inhibition at 10 µM,[11],< 5%
same,inhibition at 10 µM,[12],< 5%
same,inhibition at 10 µM,[13],19.4%
same,inhibition at 10 µM,[14],< 5%
same,inhibition at 10 µM,"K562, Leukemia K-562, 10 μM",< 5%
same,inhibition at 10 µM,"KM12, Colon cancer KM12, 10 μM",< 5%
same,inhibition at 10 µM,[15],5.22%
same,inhibition at 10 µM,"Leukemia SR, 10 μM",12.7%
same,inhibition at 10 µM,[16],13.9%
same,inhibition at 10 µM,[17],17.7%
same,inhibition at 10 µM,[18],< 5%
same,inhibition at 10 µM,[19],24.8%
same,inhibition at 10 µM,"MOLT-4, Leukemia MOLT-4, 10 μM",< 5%
same,inhibition at 10 µM,"Melanoma MALM-3M, 10 μM",30.1%
same,inhibition at 10 µM,[20],< 5%
same,inhibition at 10 µM,[21],14.7%
same,inhibition at 10 µM,[22],6.78%
same,inhibition at 10 µM,[23],< 5%
same,inhibition at 10 µM,[24],18.9%
same,inhibition at 10 µM,[25],< 5%
same,inhibition at 10 µM,[26],11.4%
same,inhibition at 10 µM,[27],< 5%
same,inhibition at 10 µM,"OVCAR-8, Ovarian cancer OVCAR-8, 10 μM",< 5%
same,inhibition at 10 µM,"Prostate cancer PC-3, 10 μM",8.46%
same,inhibition at 10 µM,[28],11.2%
same,inhibition at 10 µM,[29],< 5%
same,inhibition at 10 µM,[30],14%
same,inhibition at 10 µM,[31],5.93%
same,inhibition at 10 µM,[32],8.96%
same,inhibition at 10 µM,[33],12%
same,inhibition at 10 µM,[34],8.23%
same,inhibition at 10 µM,[35],6.43%
same,inhibition at 10 µM,[36],< 5%
same,inhibition at 10 µM,[37],< 5%
same,inhibition at 10 µM,[38],9.13%
same,inhibition at 10 µM,[39],10.1%
same,inhibition at 10 µM,[40],< 5%
same,inhibition at 10 µM,[41],24.7%
same,inhibition at 10 µM,[42],< 5%
same,inhibition at 10 µM,"U-251, CNS Cancer U251, 10 μM",7.57%
same,inhibition at 10 µM,[43],8.54%
same,inhibition at 10 µM,[44],< 5%
same,inhibition at 10 µM,[45],22.6%
"C/C(=N\Nc1ccc(S(N)(=O)=O)cc1)c1cnn(-c2cc(=O)[nH]c3ccc(C)cc23)c1C [Compound 4b, (E)-4-(2-(1-(5-methyl-1-(6-methyl-2-oxo-1,2-dihydroquinolin-4-yl)-1H-pyrazol-4-yl)ethylidene)hydrazineyl)benzenesulfonamide]",inhibition at 10 µM,"A498, Renal cancer A498, 10 μM",5.79%
same,inhibition at 10 µM,[1],< 5%
same,inhibition at 10 µM,"ACHN, Renal cancer ACHN, 10 μM",< 5%
same,inhibition at 10 µM,[2],< 5%
same,inhibition at 10 µM,[3],5.35%
same,inhibition at 10 µM,[4],16%
same,inhibition at 10 µM,[5],< 5%
same,inhibition at 10 µM,[6],< 5%
same,inhibition at 10 µM,"EKVX, Non-small cell lung cancer EKVX, 10 μM",< 5%
same,inhibition at 10 µM,[7],< 5%
same,inhibition at 10 µM,[8],< 5%
same,inhibition at 10 µM,[9],< 5%
same,inhibition at 10 µM,[10],9.34%
same,inhibition at 10 µM,[11],< 5%
same,inhibition at 10 µM,[12],< 5%
same,inhibition at 10 µM,[13],14.4%
same,inhibition at 10 µM,[14],< 5%
same,inhibition at 10 µM,"K562, Leukemia K-562, 10 μM",9.72%
same,inhibition at 10 µM,[15],13%
same,inhibition at 10 µM,"Leukemia SR, 10 μM",40.3%
same,inhibition at 10 µM,[16],16.1%
same,inhibition at 10 µM,[17],18.8%
same,inhibition at 10 µM,[18],8.01%
same,inhibition at 10 µM,[19],41.7%
same,inhibition at 10 µM,"MOLT-4, Leukemia MOLT-4, 10 μM",16.1%
same,inhibition at 10 µM,"Melanoma M14, 10 μM",< 5%
same,inhibition at 10 µM,"Melanoma MALM-3M, 10 μM",16.4%
same,inhibition at 10 µM,[20],< 5%
same,inhibition at 10 µM,[21],15.9%
same,inhibition at 10 µM,[22],< 5%
same,inhibition at 10 µM,[23],< 5%
same,inhibition at 10 µM,[24],27.9%
same,inhibition at 10 µM,[25],< 5%
same,inhibition at 10 µM,[26],11.4%
same,inhibition at 10 µM,[27],< 5%
same,inhibition at 10 µM,"Prostate cancer PC-3, 10 μM",9.56%
same,inhibition at 10 µM,[28],< 5%
same,inhibition at 10 µM,[29],9.76%
same,inhibition at 10 µM,[30],13.3%
same,inhibition at 10 µM,[31],11.1%
same,inhibition at 10 µM,[32],16.9%
same,inhibition at 10 µM,[33],7.35%
same,inhibition at 10 µM,[34],9.87%
same,inhibition at 10 µM,[35],< 5%
same,inhibition at 10 µM,[36],< 5%
same,inhibition at 10 µM,[37],5.72%
same,inhibition at 10 µM,[38],12.6%
same,inhibition at 10 µM,[39],12.2%
same,inhibition at 10 µM,[40],< 5%
same,inhibition at 10 µM,[41],27.3%
same,inhibition at 10 µM,[42],< 5%
same,inhibition at 10 µM,"U-251, CNS Cancer U251, 10 μM",13%
same,inhibition at 10 µM,[43],19.2%
same,inhibition at 10 µM,[44],< 5%
same,inhibition at 10 µM,[45],11.7%
